The text below walks through data of paper PMC8536644, “Enigmatic mechanism of the N-vinylpyrrolidone hepatocarcinogenicity in the rat” (Archives of Toxicology, 2021).

Structures are written as SMILES. “And” between values parts separate entries of the source, which are not always exact repeats. Identical values can stand only once.

Data set [1] relates to polychromatic erythrocytes of rat bone marrow. As to conditions: in vivo; cited from earlier work.
Data set [2] deals with estrogen receptor α. Also noted: method as in ToxCast (comptox.epa.gov dashboard). As to conditions: ref ToxCast (comptox.epa.gov dashboard); cited from earlier work.
For data set [3], the system named is Wistar rats. The experiment in a line: Clinical observations and body weight during 5-day inhalation.
Method: Eight-week-old male and female Wistar Crl:WI (Han) rats were obtained from Charles River Laboratories, Sulzfeld, Germany and acclimatized for 10 days. They were kept at 20–24 °C at a humidity of 30–70% in groups of six animals in polysulfone cages (Tecniplast) with free access to water and feed (10 mm pellets, Provimi Kliba, Kaiseraugst, Switzerland).
The animals were acclimatized to the whole-body exposure chambers for 2 days using the inhalation stream without the test substance. […] Animals were weighed before the 2-day acclimatation to the exposure chambers and subsequently before and after the exposure to the test substance. Animals were killed in the morning after the last exposure period to perform the examinations described further down.
For the inhalation experiments, two animals per cage (DK III, Becker & CO., Castrop-Rauxel, Germany) were kept in the glass–steel inhalation chambers (volume approximately 200 L) without access to feed and water. For each test dose a constant amount of NVP was pumped by continuous infusion pumps PHD Ultra (Havard Apparatus, Holliston) to an evaporator (Glasverdampfer BASF, Ludwigshafen, Germany; Thermostat Julabo Labortechnik, Seelbach, Germany). The thus generated vapor was combined with air and introduced into the exposure chamber.
The test system of data set [4] is rat liver. The experiment in a line: Glutathione recycling assay (tGSH, GSSG) in liver.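 On GSSG, group (mean ± SD): Nanomoles per gram liver.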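 On GSSG, individual animal: Nanomoles per gram liver.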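 On Mean GSSG concentration: Nanomoles per gram liver.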 Type of data set: in vivo. As to conditions: for GSH (GSH recycling assay), individual animal / GSSG, individual animal / tGSH, individual animal / GSH (GSH recycling assay), group (mean ± SD) / GSSG, group (mean ± SD) / tGSH, group (mean ± SD): rat liver; for GSH (GSH recycling assay), group (mean ± SD) / GSSG, group (mean ± SD) / tGSH, group (mean ± SD): n = 6. Here is the method:
Glutathione recycling assay was adapted from the method described by Gallagher ([1994]) and performed using the 14 000 g supernatant fraction derived from the 5-SSA-treated liver homogenate of the NVP-exposed male Wistar rats as described above under “Non-protein-bound sulfhydryl groups”. The obtained samples were diluted fivefold with the 5% 5-SSA solution.
For determination of total glutathione (tGSH, i.e. GSH + GSSG) a GSH control (640 µM in 5% 5-SSA, diluted by a factor of 4 for application in the assay) and a tGSH control (200 µM in 5% 5-SSA, containing 10% GSSG) were treated the same way as the samples. To 5 µL of sample, controls as well as GSH standards (dissolved in 5% 5-SSA solution) 190 µL tGSH master mix, consisting of phosphate/EDTA buffer (125 mM KH2PO4/7 mM EDTA, pH 7.5), 0.4 mM NADPH and 0.5 U/L glutathione reductase suspension, were added. Determinations were performed in triplicates. The reaction was started by adding 5 µL of 24 mM DTNB in methanol. The absorption at λ = 412 nm was measured every 60 s for 5 min.
For determination of GSSG a control (20 μM GSSG, 160 μM GSH) was treated the same way as the samples. 125 µL sample, control, GSSG standards and blank, respectively, were combined with 5 µL 2-vinylpyridine (Sigma Aldrich, Steinheim, Germany). 20 µL of […] triethylamine was pipetted to the upper rim of the vessel such that after mixing the pH value was between 7 and 7.5 and reaction was allowed to proceed in the thermomixer at 600 rpm for 1 h at 26 °C in order to derivatize the GSH in the sample. The determination of GSSG was then performed in analogy to the determination of tGSH described above. The absorption at λ = 412 nm was measured every 60 s for 10 min.

Data set [5] deals with rat hepatocytes. The experiment in a line: MTT assay in cultivated rat hepatocytes. As to conditions: up to 1000 µM. Type of data set: cell-based.
Data set [6] relates to L5178Y mouse lymphoma cells. Also noted: method as in MAK [1994]. As to conditions: ref MAK [1994]; cited from earlier work.
In data set [7] the test system is primary rat hepatocytes. Briefly: Gene expression analysis (Affymetrix) in cultivated rat hepatocytes. Type of data set: cell-based. As to conditions: 24 h; for Nrg1 upregulation / PDK4 upregulation / Atf3 upregulation: adj. p < 0.001. The protocol:
Isolation and cultivation of primary rat hepatocytes was performed according to a published standard operation procedure (Godoy et al. [2013]) and Affymetrix gene array analysis as described in Grinberg et al. ([2018]). Briefly, male Wistar rats with a body weight of 220–300 g were purchased from Charles River (Sulzfeld, Germany). The animals had free access to food (sniff, Soest, Germany) and water and were kept under controlled temperature (18–26 °C), humidity (30–70%) and lighting (12 h light/dark circle). Prior to any experimental procedure, the animals were acclimated for a minimum of 6 days. This study was approved by the local committee for the welfare of experimental animals and was performed in accordance with national legislation. RNA was extracted from cultivated primary hepatocytes as described by Heise et al. ([2012]). Incubation of the cultivated rat hepatocytes with the test compounds was performed for 24 h. Rat hepatocytes were cultivated as sandwich cultures using 6well dishes. Three independent incubations with the test compound were performed. For Affymetrix gene chip analysis samples isolated from the 6-well dishes were stored in RNAprotect reagent from Qiagen until isolation of RNA. The RNA was quantified using a NanoDrop N-1000 spectrophotometer, and the integrity of RNA was confirmed with a standard sense automated gel electrophoresis system. Samples were used for transcriptional profiling only when their RNA quality indicator (RQI) number was > 8. First-strand cDNA was synthesized from 100 ng total RNA using an oligo-dT primer with an attached T7 promoter sequence, followed by the complementary second strand. The double-stranded cDNA molecule was used for in vitro transcription (IVT, standard Affymetrix procedure) using Genechip 3′ IVT Express Kit. During synthesis of the aRNA (amplified RNA, also commonly referred to as cRNA), a biotinylated nucleotide analogue was incorporated, which served as a label for the message. After amplification, aRNA was purified with magnetic beads and 15 µg of aRNA was fragmented with the fragmentation buffer as per the manufacturer’s instructions. Then 12.5 µg fragmented aRNA was hybridized with Affymetrix Rat Genome 230 2.0 Arrays. The chips were placed in a GeneChip Hybridization Oven-645 for 16 h at 60 rpm and 45 °C. For staining and washing, Affymetrix HWS kits were used on a Genechip Fluidics Station-450. For scanning, the Affymetrix GeneChip Scanner-3000-7G was used, and the image and quality control assessments were performed with Affymetrix GCOS software. All reagents and instruments were acquired from Affymetrix (Affymetrix, Santa Clara, CA, USA). The generated CEL files were used for further statistical analysis as described in Grinberg et al., 2018).

[8] abbreviates: 5 ppm NVP inhalation, animals 7-12.
[9] abbreviates: 10 ppm NVP inhalation, animals 13-18.
Where [10] appears, read: 20 ppm NVP inhalation, animals 19-24.

With `CCOS(C)(=O)=O` [EMS, ethyl methanesulfonate, reference compound], the “Micronuclei in PCE, historical positive controls” value in data set [1] was 6.1–21.9 ‰.
Regarding `C=CN1CCCC1=O` [NVP, N-vinylpyrrolidone], the “Effect on estrogen receptor α” value in data set [2] is reported as “activates”. Also, in data set [3] (5, 10, 20 ppm inhalation, male and female), the “Mortality during the 5-day exposure” value is recorded as “None of the exposed rats died”. In data set [3] (10 ppm, males, p ≤ 0.05), the Body weight increase entry is “reduced”. Also, the “Slightly increased salivation, animals affected” value in data set [3] (day 2 of exposure) was 1 of 48. Also, the “Red nose effluent, animals affected” value in data set [3] (days 4 or 5 of exposure) is reported as 5 of 48. Also, the values for the GSH/GSSG ratio in data set [4] (5 ppm), in data set [4] (10 ppm) and in data set [4] (20 ppm) were 42.2 ± 18.4, 31.2 ± 4.6 and 30.0 ± 4.6, respectively. For the same compound, the “Mean GSSG concentration” value in data set [4] (5 ppm) turned out to be 116 ± 32 nmol/g liver; in data set [4] (10 ppm), 135 ± 12 nmol/g liver; in data set [4] (20 ppm) it was 136 ± 22 nmol/g liver. Besides, the “Proportion of reduced glutathione GSH within total glutathione tGSH” value was 95.0% ± 1.4% in data set [4] (5 ppm), 93.9% ± 0.8% in data set [4] (10 ppm) and 93.6% ± 0.9% in data set [4] (20 ppm). Also, the “GSH concentration (GSH recycling assay), range” value in data set [4] (NVP-exposed male rats, 5-20 ppm) was 3.06–5.48 µmol/g liver. For the same compound, the “GSH (GSH recycling assay), individual animal” value in data set [4] (setting [8]) is 3.84 µmol/g liver and 5.48 µmol/g liver and 4.63 µmol/g liver and 3.93 µmol/g liver and 5.04 µmol/g liver and 4.00 µmol/g liver; in data set [4] (setting [9]), 3.44 µmol/g liver and 3.95 µmol/g liver and 4.70 µmol/g liver and 4.98 µmol/g liver and 4.41 µmol/g liver and 3.65 µmol/g liver; in data set [4] (setting [10]) it was 4.45 µmol/g liver and 4.57 µmol/g liver and 3.06 µmol/g liver and 3.48 µmol/g liver and 4.31 µmol/g liver and 4.35 µmol/g liver. For the same compound, the “GSSG, individual animal” value is 133 nmol/g liver and 71 nmol/g liver and 144 nmol/g liver and 114 nmol/g liver and 149 nmol/g liver and 87 nmol/g liver in data set [4] (setting [8]); 132 nmol/g liver and 120 nmol/g liver and 151 nmol/g liver and 147 nmol/g liver and 126 nmol/g liver in data set [4] (setting [9]); 151 nmol/g liver and 130 nmol/g liver and 106 nmol/g liver and 142 nmol/g liver and 121 nmol/g liver and 167 nmol/g liver in data set [4] (setting [10]). For the same compound, the “tGSH, individual animal” value in data set [4] (setting [8]) is 4.10 µmol/g liver and 5.63 µmol/g liver and 4.92 µmol/g liver and 4.16 µmol/g liver and 5.33 µmol/g liver and 4.17 µmol/g liver; in data set [4] (setting [9]), 3.70 µmol/g liver and 4.21 µmol/g liver and 4.94 µmol/g liver and 5.28 µmol/g liver and 4.70 µmol/g liver and 3.91 µmol/g liver; in data set [4] (setting [10]) it was 4.75 µmol/g liver and 4.83 µmol/g liver and 3.27 µmol/g liver and 3.77 µmol/g liver and 4.55 µmol/g liver and 4.68 µmol/g liver. For the same compound, the “GSH (GSH recycling assay), group (mean ± SD)” value in data set [4] (5 ppm NVP inhalation) came to 4.49 ± 0.68 µmol/g liver; in data set [4] (10 ppm NVP inhalation), 4.19 ± 0.61 µmol/g liver; in data set [4] (20 ppm NVP inhalation), 4.04 ± 0.62 µmol/g liver. For the same compound, the results for the “GSSG, group (mean ± SD)” value in data set [4] (5 ppm NVP inhalation), in data set [4] (10 ppm NVP inhalation) and in data set [4] (20 ppm NVP inhalation) were 116 ± 32 nmol/g liver, 135 ± 12 nmol/g liver and 136 ± 22 nmol/g liver, respectively. Further, the “tGSH, group (mean ± SD)” value in data set [4] (5 ppm NVP inhalation) was 4.72 ± 0.67 µmol/g liver; in data set [4] (10 ppm NVP inhalation), 4.46 ± 0.62 µmol/g liver. Also, the “Cytotoxicity in MTT assay” value in data set [5] is “no cytotoxicity observed”. For the same compound, the “Mammalian cell mutation tests (HGPRT and TK locus) result” value in data set [6] is “negative”. The Nrg1 upregulation in data set [7] (40 µM) is reported as 3.5 fold; in data set [7] (200 µM) it was 6.2 fold; in data set [7] (1000 µM) it was 7.3 fold. The results for the PDK4 upregulation in data set [7] (40 µM), in data set [7] (200 µM) and in data set [7] (1000 µM) were 3.5 fold, 5.9 fold and 8.8 fold, respectively. Moreover, the results for the Atf3 upregulation in data set [7] (200 µM) and in data set [7] (1000 µM) were 5.1 and 7.1, respectively. Also, the “Lowest concentration with expression changes (PCA)” value in data set [7] (8, 40, 200 and 1000 µM tested) was 8 µM.
